Reference: patent publication US20240342244A1, “Isthmin Protein Therapeutics for the Treatment of Non-Alcoholic Fatty Liver Disease” (The Board of Trustees of the Leland Stanford Junior …, priority 2021, published 2024)

Legend:
DIO mice = assay: Therapeutic ISM1, Metformin or combined administration for 21 days in DIO mice; format: in vivo, mouse; settings: daily for 21 days; compared with vehicle
Method: Therapeutic ISM1 recombinant protein administration in vivo. All pharmacologic studies using recombinant ISM1 protein were performed in mice with established diet-induced obesity or non-alcoholic fatty liver disease (NAFLD). For all experiments, male C57BL/6J mice purchased from Jax were fed either a high-fat diet (#D12492, Research Diets) or a NAFLD diet (#D09100310, Research Diets) prior to ISM1 protein injections. In all experiments, mice were mock injected with saline for three days prior to protein or drug injections to prevent stress-induced weight loss. Mice were I.P. injected with vehicle (saline) or indicated doses of ISM1 protein diluted in saline. For the 14-day experiments in NAFLD mice, 7-weeks old mice were fed with NAFLD diet for 3 weeks and then mock injected with saline for 3 days prior to protein injections. The induction of lipid accumulation with NAFLD diet was verified by the significant increase in hepatic lipid levels compared with mice on chow diet at the same time point. NAFLD mice were then daily I.P. injected with either vehicle (saline containing 5% DMSO and 10% Kolliphor) or indicated doses of ISM1 protein (500 μg/kg or 5 mg/kg) or with FXR agonist (30 mg/kg, GW4064, Sigma-Aldrich, #G5172) diluted in vehicle (saline containing 5% DMSO and 10% Kolliphor). For the 21-day experiments in HFD mice, mice were mock injected with saline for three days prior to protein injections. Mice were then daily I.P. injected with either vehicle (saline) or 5 mg/kg of ISM1 protein diluted in saline. Metformin (100 mg/kg, Sigma, #317240) was diluted in saline and daily administered by oral gavage. All groups received control injections by I.P. and oral gavage. At the end of the experiments, mice and tissue weights were recorded. Tissues and plasma were collected and frozen for further analyses.
Glucose tolerance and insulin tolerance tests. For glucose tolerance tests, mice were fasted overnight and I.P. injected with glucose at 2 g/kg body weight. Blood glucose levels were measured at 0, 15, 30, 45, 60, 90 and 120 mins. For insulin tolerance tests, mice were fasted for 2 h, and I.P. injected with 0.75 U/kg insulin. Blood glucose levels were measured at 0, 15, 30, 45, 60, 90 and 120 mins.

primary mouse adipocytes = assay: 2-deoxy-3H-glucose uptake in primary mouse adipocytes; format: cell-based
Method: (§1) Mouse and human pre-adipocytes culture and differentiation. Inguinal fat pads from 4-8 week old C57BL/6J male and female mice were dissected and mechanically digested for 10 min using spring scissors. Digested tissues were incubated in WAT isolation buffer (10 ml PBS, 2.4 U/ml dispase II (#04942078001, Roche), 10 mg/ml collagenase D (#11088858001, Roche) at 37° C. for 45 min. 20 mL growth media was added and the tissue suspension was filtered through a 100-μm cell strainer and centrifuged at 600×g for 5 min. The cell pellets were resuspended in 20 mL growth media, filtered through a 40-μm cell strainer, centrifuged at 600×g for 5 min, resuspended in 10 mL growth media, and plated in 10-cm collagen-coated dishes. The cells were cultured in growth media (DMEM/F-12 Glutamax, Thermo Fisher Scientific #10565018) supplemented with 10% fetal bovine serum. Two days post-confluency, differentiation was induced with growth media containing 1 μM rosiglitazone, 0.5 mM isobutylmethylxanthine, 1 μM dexamethasone, 5 μg/mL insulin. After two days, cells were re-fed with growth media containing 1 μM rosiglitazone and 5 μg/mL insulin. Cells were fully differentiated after 6-8 days. For ISM1 knockdown or overexpression in primary adipocytes using adenovirus, 500 μL crude virus was mixed with 500 μL fresh growth media containing 1 μM rosiglitazone and 5 μg/mL insulin was added to each well at day 2 of differentiation. At day 4, virus-containing media was removed and 500 μL fresh growth media without stimulators was added to each well. SGBS cells were differentiated as described previously (Fischer-Posovszky et al., 2008; Wabitsch et al., 2001). Briefly, cells were cultured in growth media DMEM/F-12 Glutamax, supplemented with 10% fetal bovine serum, 33 uM biotin, and 17 uM pantothenate. Two days post confluency, differentiation was induced with serum-free DMEM/F12 media containing 33 uM biotin, 17 uM pantothenate, 0.01 mg/ml transferrin, 20 nM insulin, 100 nM cortisol, 0.2 nM triiodothyronine, 25 nM dexamethasone, 0.25 mM isobutyl methylxanthine, and 2 μM rosiglitazone. After four days, cells were re-fed with growth media containing 0.01 mg/ml transferrin 20 nM insulin, 100 nM cortisol, 0.2 nM triiodothyronine. Cells were fully differentiated after day 8-10.
(§2) Glucose uptake. Glucose uptake was performed as previously described (You et al., 2017). Briefly, 2-Deoxy-d-[2,6-3H]-glucose was purchased from PerkinElmer NEN radiochemicals. Fully differentiated adipocytes were washed with KRH buffer and starved in 0.5% BSA in KRH buffer for 4 h. Indicated concentrations of insulin or ISM1 were added at indicated time points. Cells were treated with a mixture of 500 μM 2-deoxy-D-glucose and 1.71 μCimL^−1 2-Deoxy-D-[1,2-3H (N)]-glucose for another 10 min followed by three washes using ice cold KRH buffer containing 200 mM glucose. The passive glucose uptake in the presence of 50 uM CytoB was less than 12% of the total glucose uptake. Cells were solubilized in 1% SDS and radioactivity was measured by liquid scintillation counting.

pAKT^S473 [1] = assay: Signaling induced by ISM1 or insulin in 3T3-F442A cells pre-treated with inhibitors; format: cell-based; settings: for effect of inhibitor on pAKT^S473 phosphorylation induced by ISM1 and insulin: ISM1 100 nM or insulin 100 nM, 3T3-F442A cells
Method: (§3) Western blots and molecular analyses. For western blotting, homogenized tissues or whole-cell lysates, samples were lysed in RIPA buffer containing protease inhibitor cocktail (Roche) and phosphatase inhibitor cocktail (Roche). Cell lysates were centrifuged at 14,000×g for 15 min and supernatants were prepared in 4×LDS Sample Buffer (Invitrogen) and separated by SDS-PAGE and transferred to Immobilon 0.45 μm membranes (Millipore). For Western blotting of plasma samples, 1 μl of plasma was prepared in 2× sample buffer (Invitrogen) with reducing agent, boiled, and analyzed using Western blot against indicated antibody. Protein kinase array (R&D systems ARY003B) was performed according to the manufacturers' description. All antibodies used in this paper are described in STAR methods.

pAKT^S473 [2] = assay: pAKT S473 signaling in 3T3-F442A cells (phosphokinase array, western blot); format: cell-based; settings: 5 min
Method: as §3

human SGBS adipocytes = assay: 2-deoxy-3H-glucose uptake in human SGBS adipocytes; format: cell-based
Method: as §1, §2

[3] = tested on: pAKT^T308, S6^S235/S236, PRAS40^Thr246, ERK1/2, PKA, PDK1, GSK3β; assay: Time-course western blot of intracellular signaling pathways in 3T3-F442A cells; format: cell-based; settings: 100 nM; time course
Method: as §3

GLUT4 = GLUT4 translocation to the plasma membrane in primary adipocytes (immunostaining, fractionation); format: cell-based, mouse; settings: 100 nM
Method: Biochemical analyses. Plasma insulin levels were measured using the Ultra-Sensitive Mouse Insulin ELISA kit (Crystal Chem Inc #90080). Plasma triglycerides were measured with Infinity triglyceride measurement kit (Thermo #TR22421) and tissue triglycerides were measured with a Triglyceride Colorimetric Assay Kit (Cayman #10010303). Lipolysis was measured in day 5 differentiated adipocytes after 4 hours of protein treatment using a glycerol release assay according to the protocol provided by the manufacturer (Abcam #ab133130). Plasma membrane protein extractions were performed according to the manufacturer's protocol (Abcam #ab65400).
Immunocytochemistry. Primary mouse preadipocytes were seeded onto collagen-coated 22 mm×22 mm coverslips and differentiated using the method above. On day 8, differentiated adipocytes were washed with PBS and starved in 0.5% BSA in KRH buffer (50 mM HEPES, 136 mM NaCl, 1.25 mM MgSO4, 1.25 mM CaCl2, 4.7 mM KCl, pH 7.4) for 3.5 h. Cells were treated with insulin or ISM1 for 30 min, followed by three washes with cold PBS. Cells were fixed with 4% PFA in PBS for 15 min at room temperature. After blocking with 2% BSA, 5% goat serum, 0.2% Triton-X in PBS for 1 hr, cells were incubated with diluted primary antibody at 4° C. overnight. The next day, cells were washed and incubated with secondary antibody on ice for 1 hr. Cells were imaged using confocal microscope (Leica TCS SP8). Hoechst (#33342, thermo fisher) was used as counterstain.

[4] = tested on: IGF-I-Receptor β Tyr1135/1136 or Insulin receptor Tyr1150/1151; assay: Western blot of phosphorylated insulin and IGF receptors in 3T3-F442A cells; format: cell-based; settings: 100 nM; 2 minutes
Method: as §3

srebp1c = assay: Lipogenic gene and SREBP-1c protein expression in primary adipocytes; format: cell-based, mouse; settings: primary adipocytes
Method: (§4) Gene expression analysis. Total RNA from cultured cells or tissues was isolated using TRIzol (Thermo Fischer Scientific) and Rneasy mini kits (QIAGEN). RNA was reverse transcribed using the ABI high capacity cDNA synthesis kit. For qRT-PCR analysis, cDNA, primers and SYBR-green fluorescent dye (ABI) were used. Relative mRNA expression was determined by normalization with Cyclophilin levels using the ΔΔCt method.
as §3

pTyr = assay: Western blot of pTyr levels; format: cell-based; settings: 100 nM; 2 minutes
Method: as §3

[5] = tested on: differentiated 3T3-L1 adipocytes; assay: 2-deoxy-3H-glucose uptake in differentiated 3T3-L1 adipocytes; format: cell-based; settings: 1 h
Method: as §2

AML12 hepatocytes = assay: Lipogenesis assay (3H-acetate incorporation into lipids) in AML12 hepatocytes; format: cell-based, mouse; settings: 50 nM insulin; 24 h
Method: Lipogenesis Assay. Primary hepatocytes or AML12 hepatocytes were washed twice with warm PBS and starved in serum-free DMEM overnight. Indicated concentrations of insulin with or without ISM1 were added at the same time. After 24 h, a mixture of 10 μM cold acetate and 2 μCi [3H]-Acetate (#NET003H005MC, PerkinElmer) was added to each well and cells were incubated for another 4 hr. Cells were washed with PBS twice and lysed using 0.1 N hydrogen chloride. Lipids were extracted by 2:1 chloroform-methanol (v/v). After centrifugation at 3000×g for 10 min, the lower phase was transferred to scintillation vials and radioactivity was measured by liquid scintillation counting.

SREBP1c, FAS, ACC = assay: Lipogenic protein and gene expression in AML12 hepatocytes; format: cell-based, mouse; settings: 50 nM insulin, with or without ISM1; 24 h
Method: as §4, §3

[6] = pre-treated for 30 min, ISM1 or insulin 100 nM

CN(C)C(=N)N=C(N)N [Metformin, reference compound]
fasting blood glucose (DIO mice): lower
glucose tolerance (GTT) (DIO mice): comparable effects on improving glucose tolerance

C=C1[C@@H](C)[C@H]2[C@H](Cc3ccccc3)NC(=O)[C@]23OC(=O)/C=C/[C@H](O)CCC[C@@H](C)C/C=C/[C@H]3[C@@H]1O [CytoB, reference compound]
passive glucose uptake as share of total glucose uptake (primary mouse adipocytes; 50 uM CytoB): less than 12%

albumin [reference compound]
glucose uptake (protein control) (primary mouse adipocytes; 100 nM): no effect

CCOc1cn(-c2ccc(F)cc2C)nc1C(=O)Nc1ccc(Oc2ccnc3cc(OC)c(OC)cc23)c(F)c1 [LDC1267]
effect of inhibitor on signaling induced by PDGFββ or insulin (pAKT^S473 [1]; any of the doses tested, insulin 200 nM, PDGF-ββ 20 ng/ml): neither the signaling induced by PDGFββ or insulin are inhibited
effect of inhibitor on ISM1-induced pAKT signaling (pAKT^S473 [1]; pre-treated for 30 min, ISM1 200 nM): inhibited

CCC(=O)N1CCN(c2ccc(-n3c(=O)ccc4cnc5ccc(-c6cnc7ccccc7c6)cc5c43)cc2C(F)(F)F)CC1 [Torin]
effect of inhibitor on pAKT^S473 phosphorylation induced by ISM1 and insulin (pAKT^S473 [1]): fully ablates

Thrombospondin-1: his-tagged mouse Thrombospondin-1, control protein containing thrombospondin domains [reference compound]
bioactivity on pAKT^S473 (western blot) (pAKT^S473 [2]; 100 nM): no bioactivity

Cc1ccc([N+](=O)[O-])cc1S(=O)(=O)N(C)/N=C/c1cnc2ccc(Br)cn12 [PIK]
effect of inhibitor on pAKT^S473 phosphorylation induced by ISM1 and insulin (pAKT^S473 [1]): completely block

COc1ncc(-c2ccc3nccc(-c4ccnnc4)c3c2)cc1NS(=O)(=O)c1ccc(F)cc1F [Omipalisib]
effect of inhibitor on pAKT^S473 phosphorylation induced by ISM1 and insulin (pAKT^S473 [1]): completely block

C[C@]1(O)C[C@@H](c2nc(-c3ccc4ccc(-c5ccccc5)nc4c3)c3c(N)nccn32)C1 [OSI-906, reference compound]
insulin-induced glucose uptake in presence of inhibitor (human SGBS adipocytes; 50 nM OSI-906): significantly reduced
ISM1-induced glucose uptake in presence of inhibitor (human SGBS adipocytes; 50 nM OSI-906, 100 nM ISM1): not affected
insulin signaling in presence of inhibitor (pAKT^S473 [1]; 1000 nM OSI-906, insulin 100 nM): completely abolished
ISM1 signaling in presence of inhibitor (pAKT^S473 [1]; even at 1000 nM OSI-906, ISM1 100 nM): intact

insulin [reference compound]
glucose uptake induction compared with ISM1 (primary mouse adipocytes; 1 h): higher glucose induction than ISM1
pAKT^T308 phosphorylation [3]: phosphorylation at pAKT^T308 at all time points
GLUT4 in plasma membrane fraction (biochemical fractionation) (GLUT4; 4 h): translocation of GLUT4 to the plasma membrane
GLUT4 at cell surface (immunostaining, confocal microscopy) (GLUT4; compared with control cells): higher levels of GLUT4 at cell surface
dose at which dose-dependent increase in pAKT^S473 phosphorylation starts (pAKT^S473 [2]; increasing doses): 10 nM
IGF-R/IR phosphorylation [4]: induced IGF-R/IR phosphorylation
srebp1c expression under basal conditions (srebp1c): induces srebp1c expression
concentration from which glucose uptake is increased (human SGBS adipocytes; doses ranging from 10 nM to 200 nM): 20 nM
tyrosine phosphorylation of proteins (pTyr): induces phosphorylation of its receptors at larger molecular weights
induction of glucose uptake [5]: ~40 fold
de novo lipogenesis (AML12 hepatocytes): significant induction of lipogenesis
SREBP1c cleavage, FAS and ACC protein expression (SREBP1c, FAS, ACC): increased expression of pre-SREBP1c as well as the cleaved SREBP1, and increased protein expression of FAS and ACC

COc1ccccc1N1CCN(c2ncnc3n[nH]c(Br)c23)CC1 [DG2]
effect of inhibitor on S6^S235/S236 (pAKT^S473 [1]; [6]): dose-dependently inhibited
pAKT in presence of inhibitor (pAKT^S473 [1]; [6]): remained intact
